Measured values taken from ChEMBL document CHEMBL1201862, “PubChem BioAssay data set” (2004).
Active and inactive are the calls of the source.

Columns and labels:
[1] = Luminescence Cell-Based Dose Response to Identify Activators of Luciferase Translation or Activity in H4-C Neuroglioblastoma Cells. [Related pubchem assays: 1829 (Project Summary), 1814 (Primary HTS)]; format: functional
[2] = Luminescence Cell-Based Dose Response HTS to Identify Activators of Luciferase Translation or Activity in H4 […] Cells. [Related pubchem assays: 1829 (Project Summary), 1814 (Primary HTS)]; format: functional
[3] = Luminescence Cell-Based Dose Response to Identify Activators of 5'UTR Stem-Loop Driven Prion Protein mRNA Translation in H4-C Neuroglioblastoma Cells. [Related pubchem assays: 1829 (Project Summary), 1814 (Primary HTS)]; format: functional
[4] = Luminescence Cell-Based Dose Confirmation to Identify Activators of 5'UTR Stem-Loop Driven Alpha-Synuclein mRNA Translation in H4 Neuroglioblastoma Cells. [Related pubchem assays: 1829 (Project Summary), 1814 (Primary HTS)]; format: functional
H4 = test: Luminescence Cell-Based Dose Response HTS to Identify Activators of 5'UTR Stem-Loop Driven Prion Protein mRNA Translation in H4 Neuroglioblastoma Cells. [Related pubchem assays: 1829 (Project Summary), 1814 (Primary HTS)]; format: functional; conditions: Homo sapiens
[5] = growth inhibition of yeast DHODH-expressing 3D7 parasites – SYBR Green, dry powder samples, dose response (AID 1159570); format: functional, cell-based;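 also: parasite growth measured after 72 hours of compound exposure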
[6] = Dd2 malaria parasite growth inhibition potency – SYBR Green, dry powder samples, dose response (AID 1159566); format: functional, cell-based;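 also: potency for growth inhibition with lower SYBR green DNA signal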
[7] = growth inhibition of PfATP4-mutant resistant parasites – NITD609-resistant line, SYBR Green, dry powder, dose response (AID 1159571); format: functional, cell-based;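 also: parasites synchronized at ring stage by sorbitol before testing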
[8] = P. falciparum Dd2 growth inhibitors, dose response, SYBR Green, cherry-picked samples (AID 1159567); format: functional, cell-based
[9] = toxicity to human HepG2 hepatoma cells – cell-based, plate reader, dry powder samples, cytotoxicity control, dose response (AID 1159569); format: functional;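 also: inhibitor potency with signal falling toward the positive control level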
Prothrombin = Prothrombin (Homo sapiens, UniProt P00734); test: Thrombin 1536 HTS Dose Response Confirmation. [Related pubchem assays: 1046 (Thrombin 1536 HTS; hits were confirmed in this assay)]; format: functional
[10] = Dd2 parasite growth inhibition in erythrocytes – SYBR Green, dry powder samples, set 9, dose response (AID 1159568); format: functional, cell-based
[11] = Luminescence Cell-Based Dose Confirmation HTS to Identify Activators of 5'UTR Stem-Loop Driven Alpha-Synuclein mRNA Translation in H4 Neuroglioblastoma Cells. [Related pubchem assays: 1829 (Project Summary), 1814 (Primary HTS)]; format: functional
[12] = Luminescence Cell-Based Dose Retest to Confirm Inhibitors of Cancer Stem Cells. [Related pubchem assays (depositor defined):AID2717, AID2721]; format: functional; conditions: Homo sapiens
[13] = blockade of melanocortin 4 receptor signaling – cell-based, plate reader, cherry pick, counter-screen for LGR2 antagonist project, dose response (AID 743444); format: functional;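 also: transfected HEK 293 cells stimulated with alpha-MSH peptide; potency of inhibitors of the alpha-MSH evoked signal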
[14] = blockers of bursicon-stimulated LGR2 cAMP reporter – cell-based, HEK293, CRE-luciferase reporter, cherry pick, set 2, dose response (AID 743343); format: functional;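 also: transfected cells were stimulated with diluted bursicon conditioned medium after compound addition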
[15] = toxicity toward HepG2 liver cells – cell-based, plate reader, cherry-pick, antagonist series, cytotoxicity control, dose response (AID 743416); format: functional

Structure (SMILES)	EC50 [1]	EC50 [2]	EC50 [3]	EC50 [4]	EC50 (H4)	IC50 (Prothrombin)	further results
COCCn1c(C)cc(C(=O)COC(=O)c2ccc3ncsc3c2)c1C	343 nM (active)	155 nM (active)	1090 nM (active)	364 nM (active)	132 nM (active)		
CO[C@@H]1CN(C)C(=O)c2ccc(NC(=O)c3nc4ccccc4s3)cc2OC[C@@H](C)N(Cc2ccccc2)C[C@H]1C							AC50 [5]: 1750 nM (active); AC50 [6]: 829 nM (active); AC50 [7]: 1080 nM (active); AC50 [8]: 1120 nM (active); AC50 [9]: > 100000 nM (inactive)
CC(Sc1nncn1C)C(=O)NCc1ccc2c(c1)OCO2 (centres undefined)						> 50000 nM (not active)	
O=C(Cc1ccccc1)N1CC(=O)N2[C@H](CO)[C@H](c3ccc(C#CCc4ccccc4)cc3)[C@H]2C1							AC50 [5]: 1730 nM (active); AC50 [6]: 358 nM (active); AC50 [7]: 1180 nM (active); AC50 [10]: 354 nM (active); AC50 [8]: 918 nM (active); AC50 [9]: 22500 nM (active)
COc1ccc(S(=O)(=O)N2CCC3(CC2)CN(Cc2ccncc2)[C@H](CO)c2[nH]c4cc(OC)ccc4c23)cc1							AC50 [5]: 2140 nM (active); AC50 [6]: 1720 nM (active); AC50 [7]: 2220 nM (active); AC50 [8]: 1890 nM (active); AC50 [9]: 28500 nM (active)
COc1ccc(C(=O)n2nc(-c3ccco3)nc2N)cc1OC						2230 nM (active)	
CCCC#Cc1ccc2c(c1)[C@H]1[C@H](CCN1Cc1ccccc1F)[C@@H](CO)N2							AC50 [5]: 5850 nM (active); AC50 [6]: 2390 nM (active); AC50 [7]: 2370 nM (active); AC50 [8]: 2780 nM (active); AC50 [9]: 71500 nM (active)
CC(NC(=O)Nc1ccc2c(c1)OCO2)C1CCCO1 (centres undefined)	> 12000 nM (not active)	8120 nM (active)	> 12000 nM (not active)	> 12000 nM (not active)	33000 nM (active)		EC50 [11]: < 100 nM (active)
Cc1nn(Cc2ccc(C(=O)Nc3nccs3)cc2)c(C)c1Cl						> 50000 nM (not active)	AC50 [12]: 747 nM (active)
Cc1csc(NC(=O)c2cnc3ccccc3n2)n1							AC50 [13]: 16900 nM (active); AC50 [14]: 7510 nM (active); AC50 [15]: > 52000 nM (inactive)
O=C1OC(c2ccccc2)=C/C1=C/N1CCCCC1	352 nM (active)	129 nM (inconclusive)	426 nM (active)	306 nM (active)	142 nM (active)		EC50 [11]: < 100 nM (active)
Cc1cc(C(=O)CSc2n[nH]c(N)n2)c(C)n1-c1ccccc1	687 nM (active)	< 100 nM (active)	1030 nM (active)	6750 nM (active)	5580 nM (active)		
Cc1c(N(C)C(=O)C2CCCN2S(=O)(=O)c2ccccc2)c(=O)n(-c2ccccc2)n1C (centres undefined)						> 50000 nM (not active)	
CC(=O)c1c(C)[nH]c(C(=O)NCCC2=CCCCC2)c1C	> 12000 nM (not active)	< 100 nM (inconclusive)	862 nM (active)	468 nM (active)	12300 nM (active)		
Nc1cccc2c1C(=O)N(C(=O)c1ccco1)C2=O						8620 nM (active)	
O=C(Nc1cccc(F)c1)N1CCCCN2[C@H](CO)[C@H](c3ccc(C#Cc4ccccc4)cc3)[C@@H]2C1							AC50 [5]: 38.3 nM (active); AC50 [6]: 43.7 nM (active); AC50 [7]: 55.7 nM (active); AC50 [8]: < 300 nM (active); AC50 [9]: > 100000 nM (inactive)
CC1=C(C#N)C(=O)N(C)C(=O)/C1=N/Nc1ccc(S(N)(=O)=O)cc1						> 50000 nM (not active)	
O=C(/N=C1\SCC(=O)N1c1ccccc1Cl)c1ccccc1	> 12000 nM (not active)	11100 nM (active)	1860 nM (active)	717 nM (active)	50500 nM (active)		EC50 [11]: < 100 nM (active)
